Reference: ChEMBL document CHEMBL3870333, “Synthesis of Keap1-phosphorylated p62 and Keap1-Nrf2 protein-protein interaction inhibitors and their inhibitory activity” (Bioorg Med Chem Lett, 2016)

Tests used:
[1] = target: Sequestosome-1/Kelch-like ECH-associated protein 1 (Homo sapiens, UniProt Q14145); experiment: Inhibition of recombinant GST-His-tagged Keap1-DC domain (321 to 609 residues) (unknown origin) expressed in Escherichia coli/FAM-labeled phosphorylated p62 (unknown origin) interaction measured after 30 mins by fluorescence polarization assay
Sequence of Sequestosome-1/Kelch-like ECH-associated protein 1 (Q14145 whole entry, the tested form may be a part): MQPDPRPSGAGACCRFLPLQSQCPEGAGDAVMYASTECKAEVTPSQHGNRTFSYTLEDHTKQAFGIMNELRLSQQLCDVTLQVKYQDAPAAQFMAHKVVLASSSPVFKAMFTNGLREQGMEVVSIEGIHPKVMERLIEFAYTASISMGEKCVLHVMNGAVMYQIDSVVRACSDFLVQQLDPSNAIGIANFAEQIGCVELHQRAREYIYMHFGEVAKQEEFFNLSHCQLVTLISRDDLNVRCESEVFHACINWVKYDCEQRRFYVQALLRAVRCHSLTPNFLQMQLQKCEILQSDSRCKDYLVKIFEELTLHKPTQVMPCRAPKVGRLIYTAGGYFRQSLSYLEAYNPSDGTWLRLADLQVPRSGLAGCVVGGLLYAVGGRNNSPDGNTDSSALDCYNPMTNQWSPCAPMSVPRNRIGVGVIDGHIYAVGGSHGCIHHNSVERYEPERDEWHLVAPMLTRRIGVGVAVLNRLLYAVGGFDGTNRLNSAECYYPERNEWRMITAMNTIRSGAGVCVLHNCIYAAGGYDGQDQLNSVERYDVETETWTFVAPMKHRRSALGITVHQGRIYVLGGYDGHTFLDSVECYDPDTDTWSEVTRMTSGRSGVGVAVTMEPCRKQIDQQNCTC
Sequence of Sequestosome-1/Kelch-like ECH-associated protein 1 (Q13501 whole entry, further chain, the tested form may be a part): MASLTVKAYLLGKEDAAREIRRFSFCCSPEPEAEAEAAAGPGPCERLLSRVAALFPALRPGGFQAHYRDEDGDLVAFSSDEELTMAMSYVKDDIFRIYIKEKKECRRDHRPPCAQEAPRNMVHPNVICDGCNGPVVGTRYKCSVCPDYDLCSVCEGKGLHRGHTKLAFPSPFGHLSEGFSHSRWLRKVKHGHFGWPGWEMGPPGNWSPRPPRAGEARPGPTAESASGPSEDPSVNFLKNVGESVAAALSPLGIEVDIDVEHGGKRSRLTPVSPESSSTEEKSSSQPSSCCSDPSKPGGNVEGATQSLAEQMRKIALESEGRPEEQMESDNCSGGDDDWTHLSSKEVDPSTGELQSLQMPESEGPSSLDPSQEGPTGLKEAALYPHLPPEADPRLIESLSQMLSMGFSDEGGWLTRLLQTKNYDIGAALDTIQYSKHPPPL

Keap1/Nrf2 = Keap1/Nrf2 (Homo sapiens, UniProt Q14145); experiment: Inhibition of recombinant GST-His-tagged Keap1-DC domain (321 to 609 residues) (unknown origin) expressed in Escherichia coli/FAM-labeled Nrf2 (unknown origin) interaction measured after 30 mins by fluorescence polarization assay
Sequence of Keap1/Nrf2 (Q16236 whole entry, the tested form may be a part): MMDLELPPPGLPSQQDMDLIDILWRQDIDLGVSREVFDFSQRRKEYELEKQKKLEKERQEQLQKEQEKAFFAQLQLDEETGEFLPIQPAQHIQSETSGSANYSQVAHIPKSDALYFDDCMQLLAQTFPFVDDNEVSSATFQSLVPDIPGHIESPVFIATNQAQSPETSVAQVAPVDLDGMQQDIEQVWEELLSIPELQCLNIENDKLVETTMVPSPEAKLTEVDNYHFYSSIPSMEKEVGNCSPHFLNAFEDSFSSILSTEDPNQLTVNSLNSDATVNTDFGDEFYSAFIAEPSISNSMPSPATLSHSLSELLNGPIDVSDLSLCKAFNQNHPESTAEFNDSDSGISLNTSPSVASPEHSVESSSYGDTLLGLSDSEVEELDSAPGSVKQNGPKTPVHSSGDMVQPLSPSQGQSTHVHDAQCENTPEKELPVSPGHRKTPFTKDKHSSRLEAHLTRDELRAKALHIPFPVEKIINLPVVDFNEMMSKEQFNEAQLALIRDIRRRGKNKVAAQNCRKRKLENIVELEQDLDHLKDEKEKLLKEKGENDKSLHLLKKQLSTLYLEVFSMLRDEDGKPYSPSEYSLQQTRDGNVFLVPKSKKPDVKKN
Sequence of Keap1/Nrf2 (Q14145 whole entry, the tested form may be a part): as the sequence (Q14145 whole entry, the tested form may be a part) above

Homo sapiens = species: Homo sapiens; experiment: Selectivity index, ratio of IC50 for recombinant GST-His-tagged Keap1-DC domain (321 to 609 residues) (unknown origin) expressed in Escherichia coli/FAM-labeled Nrf2 (unknown origin) interaction to IC50 for recombinant GST-His-tagged Keap1-DC domain (321 to 609 residues) (unknown origin) expressed in Escherichia coli/FAM-labeled phosphorylated p62 (unknown origin) interaction

Row | Structure (SMILES) | IC50 [1] [nM] | IC50 (Keap1/Nrf2) [nM] | Ratio IC50 (Homo sapiens)
1 | COc1ccc(S(=O)(=O)Nc2cc(CC(C)=O)c(NS(=O)(=O)c3ccc(OC)cc3)c3ccccc23)cc1 | 2400 | 3200 | 1.3
2 | CCOc1ccc(S(=O)(=O)Nc2cc(CCCC(=O)O)c(NS(=O)(=O)c3ccc(OCC)cc3)c3ccccc23)cc1 | – | 150 | 1
3 | CCOc1ccc(S(=O)(=O)Nc2cc(CCC(=O)O)c(NS(=O)(=O)c3ccc(OCC)cc3)c3ccccc23)cc1 | 190 | 230 | 1.2
4 | CCOc1ccc(S(=O)(=O)Nc2cc(SCC(=O)OC)c(NS(=O)(=O)c3ccc(OCC)cc3)c3ccccc23)cc1 | 370 | 720 | 1.9
5 | CCOc1ccc(S(=O)(=O)Nc2cc(SCC(=O)O)c(NS(=O)(=O)c3ccc(OCC)cc3)c3ccccc23)cc1 | 180 | 200 | 1.1
6 | CCOc1ccc(S(=O)(=O)Nc2cc(CC(C)=O)c(NS(=O)(=O)c3ccc(OCC)cc3)c3ccccc23)cc1 | 1500 | 6200 | 4.1
7 | CCOc1ccc(S(=O)(=O)Nc2ccc(NS(=O)(=O)c3ccc(OCC)cc3)c3ccccc23)cc1 | 1400 | 2800 | 2
8 | CCOc1ccc(S(=O)(=O)Nc2cc(Sc3nc[nH]n3)c(NS(=O)(=O)c3ccc(OCC)cc3)c3ccccc23)cc1 | 1000 | 1300 | 1.3
9 | CCOc1ccc(S(=O)(=O)Nc2cc(CC(=O)O)c(NS(=O)(=O)c3ccc(OCC)cc3)c3ccccc23)cc1 | 230 | 320 | 1.4
